What was measured:
[1] = tested on: primary culture of cortical neurons; assay: MTT neuronal survival evaluation test in in vitro model of ischemia/reperfusion (OGD); assay type: cell-based, mouse; conditions: for neuronal protection (MTT): Example 6, FIG. 6, 100 nM, 4 h of OGD then 24 h of reperfusion
Experimental: (§1) More specifically, the cells taken are grown in a Neurobasal™ medium (ref. 21103049 ThermoFisher Scientific) to which L-glutamine and B27 supplement 50X (ref. 17504044 ThermoFisher Scientific) have been added (step 2). The neurons from the primary culture are then isolated and purified. It should be noted that it is the culture conditions in themselves which make it possible to obtain a purified culture of neurons from the dissociation of the embryonic cortexes. Oxygen and glucose deprivation (OGD) is then carried out (step 3) on these neurons in order to mimic as closely as possible what happens in vivo during a stroke, that is to say a decrease in oxygen and glucose supply due to a decrease in blood perfusion for the cells. In order to carry out this oxygen and glucose deprivation mimicking ischemia, the neurons are placed, for 4 h, in an incubator of which the atmosphere has an oxygen content of approximately 1% and with the culture medium being replaced with a glucose-free medium (step 3). Since the ischemia model is an “ischemia/reperfusion” model, the neurons are then placed in a medium containing glucose under normoxic conditions for 24 h (reperfusion) (step 4) following the ischemia step. Neuron group A is a group of neurons having been treated with a solution of compound of formula (I) during the OGD and the reperfusion, that is to say that a molecule of table 1 is added to glucose-free medium as soon as the oxygen and glucose deprivation begins (step 3). […] The concentration of the other molecules of table 1 is 100 nmol·L^−1 in the glucose-free medium. Neuron group B is a group of neurons having been treated with a solution of DX243 during the reperfusion only (step 4), in order to be closer to what occurs clinically, namely the possible treatment only after several hours with a conventional treatment. The DX243 solution is added to the glucose-free medium as soon as the reperfusion begins (step 4). The DX243 concentration is between 1 nmol. L^−1 and 1 μmol·L^−1 in the glucose-free medium.
(§2) The negative control consists of a group of neurons undergoing OGD (step 3) followed by reperfusion (step 4) without DX243 being present. This group of neurons is called “Ctrl” in FIGS. 2 to 4. The normal control consists of a group of neurons from the primary culture placed under normoxic conditions for 28 h. The normal control is called “normox” in FIGS. 2 to 4. The positive control consists of a group of neurons from the primary culture having undergone OGD for 4 h (step 3) in the presence of roscovitine, which is a cell cycle inhibitor, leading to neuronal protection, followed by reperfusion for 24 h (step 4). The positive control is called “ROSCO” in FIGS. 2 to 4.
(§3) At the end of the reperfusion (step 4), 24 h after the OGD, the survival of the neurons is evaluated by means of three different tests: an immunocytochemical test 5, an MTT (3-(4,5-dimethylthiazol-2-yl)-2,5-diphenyltetrazolium bromide) test 6 and a test based on the cell membrane integrity via the use of trypan blue 7. The results are then compared to the results of the three control-group survival tests.
In order to confirm the results obtained with DX243, a test based on the metabolic activity of the neurons was carried out to evaluate neuronal survival in another way. This test is based on the use of the tetrazolium salt MTT (3-(4,5-dimethylthiazol-2-yl)-2,5-diphenyltetrazolium bromide). The tetrazolium is reduced, by the mitochondrial succinate dehydrogenase of the active live cells, into formazan, a purple-colored precipitate. The amount of precipitate formed is proportional to the amount of live cells but also to the metabolic activity of each cell. Thus, a simple assay of the optical density at 550 nm by spectroscopy makes it possible to determine the relative amount of live and metabolically active cells. […]

[2] = tested on: primary culture of cortical neurons; assay: Neuronal survival evaluation via trypan blue (cell membrane integrity) in in vitro model of ischemia/reperfusion (OGD); assay type: cell-based, mouse; conditions: for overall conclusion: neuroprotective effect against cerebral ischemia: conclusion drawn from all of the results (Examples 2 to 8); for neuronal protection (trypan blue): Example 7, FIG. 7, 4 h of OGD then 24 h of reperfusion
Experimental: as §1, §2, §3
A third cell survival test in the case of the use of DX243, based on cell membrane integrity, which is ruptured in dead cells, was carried out. The latter test uses trypan blue which will stain the dead cells blue. The calculation of the percentage of live cells was consequently performed by counting the proportion of blue and non-blue cells, and related to the percentage of live cells observed in the normox group. The results obtained were reported in graph A of FIG. 4 for group A and in graph B of FIG. 4 for group B.
For all the molecules of table I other than DX243 used on group A, the third cell survival test was carried out. The results obtained were reported on the graph of FIG. 5, with the results obtained with DX243 being included therein. The sign NT means not treated. […]

[3] = tested on: male murine model of stroke, called Middle Cerebral Artery Occlusion (MCAO); assay: In vivo stroke test, Middle Cerebral Artery Occlusion (MCAO) followed by reperfusion; parameters: species or system mouse; conditions: DX243 50 mg/Kg at reperfusion after 1 h occlusion
[4] = tested on: primary culture of cortical neurons; assay: Immunocytochemical test for neuronal survival (DAPI, CC3, TUJ1) in in vitro model of ischemia/reperfusion (OGD); assay type: cell-based, mouse
Experimental: as §1
The negative control consists of a group of neurons undergoing OGD (step 3) followed by reperfusion (step 4) without DX243 being present. This group of neurons is called “Ctrl” in FIGS. 2 to 4. […]
At the end of the reperfusion (step 4), 24 h after the OGD, the survival of the neurons is evaluated by means of three different tests: an immunocytochemical test 5, an MTT (3-(4,5-dimethylthiazol-2-yl)-2,5-diphenyltetrazolium bromide) test 6 and a test based on the cell membrane integrity via the use of trypan blue 7. […]
A first series of images is taken with chemical labelling by fluorescence. […] A second series of images is taken with labelling by fluorescence using the CC3 antibody. […]

[5] = Example 5, FIG. 5, group A, 100 nmol·L^−1 during 4 h OGD and 24 h reperfusion
[6] = concentration not printed in the sentence (100 nmol·L^−1 per Example 1)
[7] = observed at 24 h, vs non-treated (Ctrl) mice
[8] = 4 h OGD + 24 h reperfusion, DX243 treatment compared with the Ctrl group

For `CC(C)CCCC(C)[C@H]1CCC2C3C[C@@H](NCCc4cnc[nH]4)[C@@]4(O)C[C@@H](O)CC[C@]4(C)C3CC[C@@]21C` (some centres unmarked) [DX101], the “neuronal protection (MTT)” value [1] was “neuroprotective effect” and the “overall conclusion: neuroprotective effect against cerebral ischemia” value (“overall conclusion” below) [2] was “neuroprotective effect against cerebral ischemia”.
With `CC(C)CCCC(C)[C@H]1CCC2C3=C[C@@H](NCCCNCCCCN)[C@@]4(O)C[C@@H](O)CC[C@]4(C)C3CC[C@@]21C` (some centres unmarked) [DX242] the “neuronal protection (MTT)” value [1] was “neuroprotective effect”, the “survival rate compared with DX243” value [2, 5] was “greater than that of DX243” and the “neuronal protection (trypan blue)” value [2, 6] was “neuroprotective effect”. For the same compound, the “overall conclusion” value [2] was “neuroprotective effect against cerebral ischemia”.
`CC(C)CCCC(C)[C@H]1CCC2C3C[C@@H](NCCCN(CCCCNC(=O)OC(C)(C)C)C(=O)OC(C)(C)C)[C@@]4(O)C[C@@H](O)CC[C@]4(C)C3CC[C@@]21C` (some centres unmarked) [DX243BOC] was tested, and the “survival rate compared with DX243” value [2, 5] was “lower than that of the group treated with DX243” and the “survival rate compared with NT neurons having undergone OGD and reperfusion” value [2, 5] was “lower than that of the group treated with DX243 and than that of the NT group having undergone OGD and reperfusion”.
With `CC(C)CCCC(C)[C@H]1CCC2C3C[C@@H](NCCCNCCCCN)[C@@]4(O)C[C@@H](O)CC[C@]4(C)C3CC[C@@]21C` (some centres unmarked) [DX243] the “behavioral deficits (neuroscore)” value ([3]; observed at 24 h, living mice, vs non-treated (Ctrl) mice) was “decrease in the behavioral deficits”, the “percentage of dead mice” value [3, 7] was “decrease in the percentage of dead mice” and the “size of the lesion (infarcted region, TTC staining)” value [3, 7] was “decrease in the size of the lesion”. For the same compound, the “correlation between the decrease in blood flow (Laser Doppler Flowmetry) and the consequences of the stroke” value ([3]; treated mice) was “there does not appear to be any correlation”, the “protection against decrease of metabolically active cells (survival) following OGD” value ([1]; 4 h OGD + 24 h reperfusion, groups A and B, vs Ctrl group) was “partially protects against this decrease in survival” and the “neuronal protection (MTT)” value [1] was “significant neuronal protection”. The “effect in group treated only during reperfusion compared with group A” value ([1]; group B, DX243 only during the reperfusion for 24 h) was “all the more marked”, the “percentage of live cells (membrane integrity) related to normox group” value ([2]; 4 h OGD + 24 h reperfusion, groups A and B, mainly 1 to 100 nmol·L^−1) was “restores the percentage of live cells to levels close to that observed in the normox group” and the “neuronal protection (trypan blue)” value ([2]; 1000 nM) was “neuroprotective effect”. The “neuronal protection (trypan blue)” value ([2]; concentrations ranging from 1 to 100 nM) was “significant neuronal protection”, the “overall conclusion” value [2] was “neuroprotective effect against cerebral ischemia” and the “protection against neuronal death” value ([4]; 4 h OGD + 24 h reperfusion, DX243 during OGD and reperfusion, or only during reperfusion, vs Ctrl group) was “partially protect against neuronal death”. The “proportion of cells undergoing apoptosis (CC3 antibody, activated caspase 3)” value [4, 8] was “decrease in the proportion of cells undergoing apoptosis”, the “proportion of live cells” value [4, 8] was “increase in the proportion of live cells” and the “neuron protection, post-OGD treatment for 24 h (reperfusion only) compared with treatment during OGD and reperfusion” value ([4]; group B, DX243 only during 24 h reperfusion) was “protects the neurons even more efficiently”.
`CC(C)CCCC(C)[C@H]1CCC2C3=C[C@@H](NCCCCNCCCN)[C@@]4(O)C[C@@H](O)CC[C@]4(C)C3CC[C@@]21C` (some centres unmarked) [DX244] was tested, and the “neuronal protection (MTT)” value [1] was “neuroprotective effect”, the “survival rate compared with DX243” value [2, 5] was “greater than that of DX243” and the “neuronal protection (trypan blue)” value [2, 6] was “neuroprotective effect”. For the same compound, the “overall conclusion” value [2] was “neuroprotective effect against cerebral ischemia”.
For `CC(C)CCCC(C)[C@H]1CCC2C3C[C@@H](NCCCCNCCCN)[C@@]4(O)C[C@@H](O)CC[C@]4(C)C3CC[C@@]21C` (some centres unmarked) [DX245], the “neuronal protection (MTT)” value [1] was “significant neuronal protection”, the “survival rate compared with DX243” value [2, 5] was “greater than that of DX243” and the “neuronal protection (trypan blue)” value ([2]; 10 nM) was “neuroprotective effect”. For the same compound, the “neuronal protection (trypan blue)” value ([2]; 100 nM) was “significant neuronal protection”, the “neuronal protection (trypan blue)” value ([2]; 1000 nM) was “neuroprotective effect” and the “overall conclusion” value [2] was “neuroprotective effect against cerebral ischemia”.
For `CC(=O)NCCCNCCCCN[C@@H]1CC2C3CC[C@H](C(C)CCCC(C)C)[C@@]3(C)CCC2[C@@]2(C)CC[C@H](O)C[C@]12O` (some centres unmarked) [DX249], the “neuronal protection (MTT)” value [1] was “neuroprotective effect” and the “overall conclusion” value [2] was “neuroprotective effect against cerebral ischemia”.
With `CC(C)CCCC(C)[C@H]1CCC2C3C[C@@H](NCCCNCCCCNCCCN)[C@@]4(O)C[C@@H](O)CC[C@]4(C)C3CC[C@@]21C` (some centres unmarked) [DX301] the “neuronal protection (MTT)” value [1] was “neuroprotective effect” and the “overall conclusion” value [2] was “neuroprotective effect against cerebral ischemia”.
`CC(C)CCCC(C)[C@H]1CCC2C3=C[C@@H](NCCCNCCCCNCCCN)[C@@]4(O)C[C@@H](O)CC[C@]4(C)C3CC[C@@]21C` (some centres unmarked) [DX302] was tested, and the “neuronal protection (MTT)” value [1] was “neuroprotective effect” and the “overall conclusion” value [2] was “neuroprotective effect against cerebral ischemia”.
For `CC(C)CCCC(C)[C@H]1CCC2C3C[C@@H](NCCCCN)[C@@]4(O)C[C@@H](O)CC[C@]4(C)C3CC[C@@]21C` (some centres unmarked) [DX401], the “neuronal protection (MTT)” value [1] was “neuroprotective effect” and the “overall conclusion” value [2] was “neuroprotective effect against cerebral ischemia”.

— US20260272950A1, “METHOD OF TREATMENT OF A NEURONAL PATHOLOGY RELATED TO HYPOXIA, HYPOGLYCEMIA AND/OR HYPERGLYCEMIA” (priority 2019, published 2026)
